Data reported in ChEMBL document CHEMBL4616596, “Structural insights into the active site of poly(ADP-ribose) glycohydrolase using docking modes of 6-hydroxy-3H-xanthen-3-one derivative inhibitors” (Bioorg Med Chem, 2020).

Biological target: Poly(ADP-ribose) glycohydrolase (Homo sapiens, UniProt Q86W56)
Assay: Inhibition of recombinant human PARG assessed as mono(ADP-R) release using PAR as substrate measured after 15 mins by HPLC analysis

Chain of Poly(ADP-ribose) glycohydrolase (Q86W56 whole entry): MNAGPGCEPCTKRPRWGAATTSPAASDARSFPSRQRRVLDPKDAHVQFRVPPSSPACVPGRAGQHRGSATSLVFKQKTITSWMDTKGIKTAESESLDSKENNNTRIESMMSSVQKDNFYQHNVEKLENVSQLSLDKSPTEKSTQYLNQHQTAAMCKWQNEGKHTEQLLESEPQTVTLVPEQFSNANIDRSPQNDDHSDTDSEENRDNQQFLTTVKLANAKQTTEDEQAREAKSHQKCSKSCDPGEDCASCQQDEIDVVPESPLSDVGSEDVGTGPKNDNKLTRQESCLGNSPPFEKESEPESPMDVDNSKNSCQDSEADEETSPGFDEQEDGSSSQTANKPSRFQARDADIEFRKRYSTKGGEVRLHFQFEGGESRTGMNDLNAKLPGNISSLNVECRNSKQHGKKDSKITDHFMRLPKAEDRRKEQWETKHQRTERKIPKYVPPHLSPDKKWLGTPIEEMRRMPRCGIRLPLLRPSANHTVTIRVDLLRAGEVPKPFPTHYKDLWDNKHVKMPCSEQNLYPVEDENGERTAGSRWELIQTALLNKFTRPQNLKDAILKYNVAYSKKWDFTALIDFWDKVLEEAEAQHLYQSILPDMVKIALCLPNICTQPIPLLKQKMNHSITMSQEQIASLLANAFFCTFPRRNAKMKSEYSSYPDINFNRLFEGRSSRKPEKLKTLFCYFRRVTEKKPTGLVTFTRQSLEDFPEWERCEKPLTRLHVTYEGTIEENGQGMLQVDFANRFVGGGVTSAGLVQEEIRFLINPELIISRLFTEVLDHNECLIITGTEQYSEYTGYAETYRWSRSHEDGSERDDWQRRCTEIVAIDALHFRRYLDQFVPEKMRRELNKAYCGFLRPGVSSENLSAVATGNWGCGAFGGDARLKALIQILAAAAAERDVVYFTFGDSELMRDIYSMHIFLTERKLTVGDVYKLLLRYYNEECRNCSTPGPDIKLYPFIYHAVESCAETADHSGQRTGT

Compound	IC50 [µM]
O=C(O)c1c(Cl)c(Cl)c(Cl)c(Cl)c1-c1c2cc(Br)c(=O)c(Br)c-2oc2c(Br)c(O)c(Br)cc12	106
O=C(O)c1ccccc1-c1c2cc(Br)c(=O)c(Br)c-2oc2c(Br)c(O)c(Br)cc12	> 300
O=C(O)c1c(Cl)ccc(Cl)c1-c1c2cc(I)c(=O)c(I)c-2oc2c(I)c(O)c(I)cc12	61.4

The remaining lines, values ahead:

IC50 [µM]	Compound
120	O=C(O)c1ccccc1-c1c2cc(I)c(=O)c(I)c-2oc2c(I)c(O)c(I)cc12
29.7	O=C(O)c1c(Cl)c(Cl)c(Cl)c(Cl)c1-c1c2cc(I)c(=O)c(I)c-2oc2c(I)c(O)c(I)cc12 [ROSE BENGAL FREE ACID]
